Data from patent US10588972B2, “Phthalocyanine probes and uses thereof” (LI-COR, INC., priority 2014, dated 2020).

Assays:
Type in all cases: cell-based
[1] = system: HTB-186 cells; experiment: JC-1 mitochondrial membrane potential assay (Example 10, Table 8); settings: 32 J/cm^2, probe about 5 hours, 20 hours post irradiation; 700DX-RGD and 700DX-EGF 500 nM
Procedure: (§1) This example illustrates the ability of IRDye® 700DX small molecule conjugates to induce apoptosis in cells, e.g., cancer cells. In this study HTB-186 cells (a desmoplastic cerebellar medulloblastoma cell line) were treated with IRDye® 700DX small molecule conjugates (IRDye® 700DX labeled chlorotoxin, anti-EGFR Affibody®, RGD peptide and EGF ligand). Apoptosis was measured by evaluating caspase 3/7 activity and mitochondrial membrane potential. […]
In this study a mitochondrial membrane potential assay was performed on cells from treatments 1-8 to determine whether the treated cells underwent apoptosis. […] As JC-1 dye accumulated in mitochondria, its fluorescence emission shifts from green (about 529 nm) to red (about 590 nm). The presence of red fluorescence due to JC-1 aggregate formation corresponds to regions of high mitochondrial polarization. Depolarized mitochondria are indicated by green fluorescence of the JC-1 monomers. A detectable decrease in the red/green fluorescence intensity ratio indicates mitochondrial depolarization, and thus, apoptosis. In a membrane potential assay, cells are incubated with the JC-1 dye and fluorescence is detected by, for example, flow cytometry, fluorescence microscopy, and fluorescence-based image cytometry. […]

[2] = system: HTB-186 cells; experiment: Viability, cell number and microscopy morphology at 20 h post irradiation (Example 10)
Procedure: This example illustrates the ability of IRDye® 700DX small molecule conjugates to induce apoptosis in cells, e.g., cancer cells. In this study HTB-186 cells (a desmoplastic cerebellar medulloblastoma cell line) were treated with IRDye® 700DX small molecule conjugates (IRDye® 700DX labeled chlorotoxin, anti-EGFR Affibody®, RGD peptide and EGF ligand). Apoptosis was measured by evaluating caspase 3/7 activity and mitochondrial membrane potential. Apoptosis can be characterized by a variety of cell morphological and biochemical changes including membrane blebbing, cell shrinkage, alteration of membrane asymmetry and permeability, and/or condensation of chromatin and nucleus (Coleman et al., Nat Cell Biol, 2001, 3(4):339-45, Bortner and Cidlowski, Biochem Pharmacol, 1998, 56(12):1549-59; van Engeland et al., Experimental Cell Research, 1997, 235:421-430).
Microscopy images of cells in petri-dishes were captured at 20 h post irradiation. The images were captured in DIC and 700 nm to visualize the probe, and composite images were generated (DIC+700 nm) to visualize the overlay.
(§2) To determine whether the treated cells are undergoing apoptosis, a caspase 3/7 assay and mitochondrial potential assay were performed. […] Table 8 below provides cells number, % viability, JC-1% shift, and % late apoptotic and dead cells as determined by caspase 3/7 assay.

[3] = system: HTB-186 cells; experiment: Caspase 3/7 assay (Example 10, Table 8); settings: 32 J/cm^2, probe about 5 hours, 20 hours post irradiation; 700DX-RGD and 700DX-EGF 500 nM
Procedure: as §1
The caspase 3/7 assay was used to measure caspase 3/7 activity in the cells from the treatments listed above. […] Upon activation, the caspases cleave the substrate, and in turn, a fluorescence signal is emitted. […] The fluorescence can be detected by, for example, flow cytometry, fluorescence microscopy, and fluorescence-based image cytometry.
as §2

[4] = system: A431 cells; experiment: VB-48 assay: vitality, viability and necrosis of treatments 1-10 (Table 3)
Procedure: Briefly, A431 cells were labeled with respective probes for specific treatments (listed below); cells were rinsed and evaluated for labeling. The test include the following treatments: […], treatments 3-4 of EGF-IRDye® 700DX at 0.5 μM and radiation, treatments 5-6 of IRDye® 700DX NHSe at 5 μM and radiation, treatments 7-8 of panitumumab-IRDye® 700DX at about 0.1 μM and radiation, treatment 9 of a negative control with no probe and no irradiation, and treatment 10 of RGD-IRDye® 700DX and no irradiation. The probes were incubated for about 10 minutes and with a longer period of about 20 minutes for the RGD probe. The cells were monitored with microscopy and morphology was examination 24 hours post treatment.
Low binding was expected for the RGD probe due to the low level of integrin receptors on A431 cells. […] By 3 hours post-irradiation all treatments except RGD (Treatment 1) show significant cytotoxicity. Vitality, viability and necrosis assays such as a VB-48 assay and JC-1 assay were performed.

[5] = irradiated (I) 32 J/cm^2, RGD 0.5 μM, EGF 0.5 μM, NHSe 5 μM, Pan ~0.1 μM
[6] = no irradiation (NI), RGD-700DX 0.5 μM

C[Si](C)(CCC[N+](CCCS(=O)(=O)O)(CCCS(=O)(=O)O)CCCS(=O)(=O)O)O[Si-2]123(O[Si](C)(C)CCC[N+](CCCS(=O)(=O)O)(CCCS(=O)(=O)O)CCCS(=O)(=O)O)n4c5c6ccccc6c4N=C4c6cccc(OCCCOC(=O)NCCCCCC(=O)NCCCC[C@@H]7NC(=O)[C@@H](Cc8ccccc8)NC(=O)[C@H](CC(=O)O)NC(=O)CNC(=O)[C@H](CCCNC(=N)N)NC7=O)c6C(=[N+]41)N=c1c4ccccc4c(n12)=NC1=[N+]3C(=N5)c2ccccc21 [RGD-700DX]
JC-1 % shift [1]: 44% | cell morphology ([2]; 32 J/cm^2, 20 h post irradiation): appeared rounded and smaller | Cell # ([2]; 32 J/cm^2, probe about 5 hours, 20 hours post irradiation, 700DX-RGD and 700DX-EGF 500 nM): 0.6E6 | Caspase 3 % late apoptotic + dead cells [3]: 57% | % Healthy [4, 5]: 91.6% | % Necrotic [4, 5]: 7% | Cells/mL [4, 5]: 6.6 × 10^5 Cells/mL | Low % Vitality [4, 5]: 2% | % Healthy [4, 6]: 90.8% | % Necrotic [4, 6]: 5% | Cells/mL [4, 6]: 5.8 × 10^5 Cells/mL | Low % Vitality [4, 6]: 4%
